The values below come from patent US20100087407A1, “USE OF AROMATASE INHIBITORS” (priority 2006, published 2010).

The conditions of data set [1]: postmenopausal breast cancer; cited from earlier work.
In data set [2] the test system is endometrium. As to the kind of experiment: Examples 1-3: endometrial thinning with loading dose and maintenance dose. It counts as in vivo, women. The conditions noted are these: loading dose on first day, then maintenance dose for 3-6 days, any time of cycle. The method, then: Five different groups of pre-menopausal women are treated based on where there are in the menstrual cycle. Starting days (i.e., the first day of dosing) for the five groups are on Cycle Days 2-5, 6-9, 10-13, 14-17, and 18-21 for Groups 1-5, respectively.
A thin endometrium is defined as having a double-wall thickness not greater than 4 mm on transvaginal ultrasound. […] The following table summarizes the dose day and evaluation times.

Data set [3] concerns endometrium. The conditions noted are these: small randomized study of progestogens; cited from earlier work.
For data set [4], the system named is endometrium. The settings on record: prior to hysteroscopic surgery; cited from earlier work.

Turning to `CCC1(c2ccc(N)cc2)CCC(=O)NC1=O` (stereo not drawn) [aminoglutethimide], the “patients stopping treatment because of side effects (lethargy, rashes, nausea, fever)” value in data set [1] is reported as 8-15%.

Regarding `CC(C)(C#N)c1cc(Cn2cncn2)cc(C(C)(C)C#N)c1` [anastrozole], the “endometrial thinning prior to ablation” value in the data set with endometrium [2] is reported as “able to maintain a thin endometrium or to induce adequate thinning”. On to `CC(=O)O[C@]1(C(C)=O)CC[C@H]2[C@@H]3C=C(Cl)C4=CC(=O)[C@@H]5C[C@@H]5[C@]4(C)[C@H]3CC[C@@]21C` [cyproterone acetate], for which the “effect on endometrial thickness” value in the data set with endometrium [3] is given as “significant reduction”. In the case of `C#C[C@]1(O)CC[C@H]2[C@@H]3CCC4=Cc5oncc5C[C@]4(C)[C@H]3CC[C@@]21C` [danazol], the endometrial thinning entry with endometrium [4] is on record as “satisfactory results”. Consider `CC(=O)O[C@]1(C(C)=O)CC[C@H]2[C@@H]3C[C@H](C)C4=CC(=O)CC[C@]4(C)[C@H]3CC[C@@]21C` [medroxyprogesterone acetate], for which, in the data set on endometrium [3], the “effect on endometrial thickness” value is “no effect”. `C#C[C@]1(O)CC[C@H]2[C@@H]3CCC4=CC(=O)CC[C@@H]4[C@H]3CC[C@@]21C` [norethisterone]: the “effect on endometrial thickness” value with endometrium [3] is reported as “no effect”.
